Patent US6376670B1, “Quinoline-indole antimicrobial agents, uses and compositions related thereto” (Sepracor Inc., priority 1997, dated 2002)
Read-outs that look alike come from different tables or passages of the source.

Experiments:
[1] = test system: vancomycin-resistant Enterococcus spp. (VRE); test: Determination of MIC values (BHI broth, 96 well microtiter plate); assay type: cell-based; details: Enterococcus, VRE, 16 h, read-out: MIC VREF
Procedure: (§1) Stock solutions of compounds are prepared with a concentration of 10 mg/mL. These solutions are then diluted 1:4 to give a concentration of 2.5 mg/mL. The compounds are then serially diluted 1:2 for 6 iterations. The concentrations made for each compound are 2.5, 1.25, 0.625, 0.3125, 0.156, 0.078, and 0.039 mg/mL. A control sample (no compound) is run along with each compound tested. All dilutions are made in DMSO.
(§2) All wells of a 96 well microtiter plate are filled with 100 μL of BHI (Brain-Heart Infusion) broth. Columns on the plate are labeled 1-12, and rows are labeled A-H. Each column of wells is used to test one series of diluted compounds. Into each well of 100 μL of BHI broth, 1 μL of diluted compound is placed for a 1:100 dilution. This makes the final concentration of each drug series 25, 12.5, 6.25, 3.125, 1.56, 0.78, 0.39, and 0 μg/mL.
(§3) Test Organism: A sterile 15 mL screw cap tube is filled wth 3 mL of BHI broth. Next, 2-3 colonies of test organism are inoculated into the tube. The tube is then incubated at 37° C. in a CO2 (approx. 7%) atmosphere jar. The organisms are allowed to grow to the density of a 0.5 McFarland standard (10^8 cells/mL). The organism is then inoculated into each well of the microtiter plate containing the diluted compounds to be tested for MIC. The inoculum is 1 μL in volume and represents 10^5 to 10^6 cells/mL.
(§4) After inoculation the plates are covered and incubated at 37° C. and approx. 7-10% CO2 atmosphere overnight (about 16 hours). The plates are then observed for growth, the well with the lowest concentration of drug and no observable growth represents the well determining the MIC.

[2] = test system: methicillin-resistant Staphylococcus aureus (MRSA); test: as above; assay type: cell-based; details: Staphylococcus aureus, MRSA, 16 h, read-out: MIC MRSA
Procedure: as §1, §2, §3, §4

[3] = BHI broth, 37° C., overnight (about 16 hours)

Cn1cc(-c2cc(C(=O)NCc3ccc(CN)cc3)c3ccccc3n2)c2ccccc21 [Example 12]
MIC [1, 3]: > 25 µg/mL
MIC [2, 3]: > 25 µg/mL

NCc1ccc(CNC(=O)c2cc3ccccc3c(-c3c[nH]c4ccc(Br)cc34)n2)cc1 [Example 13]
MIC [1, 3]: < 25 µg/mL
MIC [2, 3]: < 7 µg/mL

O=C(c1cc(-c2c[nH]c3ccc(Br)cc23)nc2ccccc12)N1CCCNCC1 [Example 14]
MIC [1, 3]: < 25 µg/mL
MIC [2, 3]: < 25 µg/mL

NCc1ccc(CNC(=O)c2cc(-c3c[nH]c4ccc(F)cc34)nc3ccccc23)cc1 [Example 15]
MIC [1, 3]: > 25 µg/mL
MIC [2, 3]: < 25 µg/mL

NCc1ccc(CNC(=O)c2cc(-c3c[nH]c4ccc(Cl)cc34)nc3ccccc23)cc1 [Example 16]
MIC [1, 3]: < 25 µg/mL
MIC [2, 3]: < 7 µg/mL

Cc1ccc2[nH]cc(-c3cc(C(=O)NCc4ccc(CN)cc4)c4ccccc4n3)c2c1 [Example 17]
MIC [1, 3]: > 25 µg/mL
MIC [2, 3]: < 25 µg/mL

COc1ccc2[nH]cc(-c3cc(C(=O)NCc4ccc(CN)cc4)c4ccccc4n3)c2c1 [Example 18]
MIC [1, 3]: > 25 µg/mL
MIC [2, 3]: > 25 µg/mL

NCc1ccc(CNC(=O)c2cc(-c3c[nH]c4ccc(OCc5ccccc5)cc34)nc3ccccc23)cc1 [Example 19]
MIC [1, 3]: < 25 µg/mL
MIC [2, 3]: < 25 µg/mL

NCc1ccc(CNC(=O)c2cc(-c3c[nH]c4cc(Cl)ccc34)nc3ccccc23)cc1 [Example 20]
MIC [1, 3]: < 25 µg/mL
MIC [2, 3]: < 25 µg/mL

NCc1ccc(CNC(=O)c2cc(-c3c[nH]c4cccc(Cl)c34)nc3ccccc23)cc1 [Example 21]
MIC [1, 3]: > 25 µg/mL
MIC [2, 3]: > 25 µg/mL

NCc1ccc(CNC(=O)c2cc(-c3c(-c4ccccc4)[nH]c4ccccc34)nc3ccccc23)cc1 [Example 22]
MIC [1, 3]: > 25 µg/mL
MIC [2, 3]: > 25 µg/mL

Cc1[nH]c2ccccc2c1-c1cc(C(=O)NCc2ccc(CN)cc2)c2ccccc2n1 [Example 23]
MIC [1, 3]: > 25 µg/mL
MIC [2, 3]: > 25 µg/mL

COC(=O)c1cc(-c2c[nH]c3ccc(Br)cc23)nc2ccccc12 [Example 24]
MIC [1, 3]: > 25 µg/mL
MIC [2, 3]: > 25 µg/mL

O=C(c1cc(C23CC4CC(CC(C4)C2)C3)nc2ccccc12)N1CCNCC1 [Example 25]
MIC [1, 3]: > 25 µg/mL
MIC [2, 3]: > 25 µg/mL

NCc1ccc(CNC(=O)c2cc(C34CC5CC(CC(C5)C3)C4)nc3ccccc23)cc1 [Example 26]
MIC [1, 3]: < 25 µg/mL
MIC [2, 3]: < 25 µg/mL

O=C(O)c1cc(-c2c[nH]c3ccc(Br)cc23)nc2ccccc12 [Example 27]
MIC [1, 3]: > 25 µg/mL
MIC [2, 3]: > 25 µg/mL

Brc1ccc2[nH]cc(-c3cc(CN4CCNCC4)c4ccccc4n3)c2c1 [Example 28]
MIC [1, 3]: < 25 µg/mL
MIC [2, 3]: < 25 µg/mL

COC(=O)C(=O)N1CCN(C(=O)c2cc(-c3c[nH]c4ccc(Br)cc34)nc3ccccc23)CC1 [Example 29]
MIC [1, 3]: < 25 µg/mL
MIC [2, 3]: < 25 µg/mL

CN1CCN(C(=O)c2cc(-c3c[nH]c4ccc(Br)cc34)nc3ccccc23)CC1 [Example 30]
MIC [1, 3]: > 25 µg/mL
MIC [2, 3]: < 25 µg/mL

CNC1CCN(C(=O)c2cc(-c3c[nH]c4ccc(Br)cc34)nc3ccccc23)CC1 [Example 31]
MIC [1, 3]: < 25 µg/mL
MIC [2, 3]: < 25 µg/mL

O=C(c1cc(-c2c[nH]c3ccc(Br)cc23)nc2ccccc12)N1CCN(c2ccc(F)cc2)CC1 [Example 32]
MIC [1, 3]: < 25 µg/mL
MIC [2, 3]: < 25 µg/mL

CNCCC(C)N(C)C(=O)c1cc(-c2c[nH]c3ccc(Br)cc23)nc2ccccc12 (stereo not shown) [Example 33]
MIC [1, 3]: < 7 µg/mL
MIC [2, 3]: < 7 µg/mL

O=C(NC1CCOC1=O)c1cc(-c2c[nH]c3ccc(Br)cc23)nc2ccccc12 (stereo not shown) [Example 34]
MIC [1, 3]: < 25 µg/mL
MIC [2, 3]: < 25 µg/mL

O=C(NC1CN2CCC1CC2)c1cc(-c2c[nH]c3ccc(Br)cc23)nc2ccccc12 (stereo not shown) [Example 35]
MIC [1]: > 25 µg/mL
MIC [2]: < 25 µg/mL

O=C(c1cc(-c2c[nH]c3ccc(Br)cc23)nc2ccccc12)N1CCC(O)(c2ccccc2)CC1 [Example 36]
MIC [1, 3]: < 25 µg/mL
MIC [2, 3]: < 25 µg/mL

O=C(Nc1ccc(O)cc1)c1cc(-c2c[nH]c3ccc(Br)cc23)nc2ccccc12 [Example 37]
MIC [1, 3]: > 25 µg/mL
MIC [2, 3]: < 7 µg/mL

O=C(NCc1nc2ccccc2[nH]1)c1cc(-c2c[nH]c3ccc(Br)cc23)nc2ccccc12 [Example 38]
MIC [1, 3]: > 25 µg/mL
MIC [2, 3]: < 7 µg/mL

NCc1ccc(CNCc2cc(-c3c[nH]c4ccc(Br)cc34)nc3ccccc23)cc1 [Example 39]
MIC [1, 3]: < 7 µg/mL
MIC [2, 3]: < 7 µg/mL

O=C(NCc1ccc(CNC(=O)c2cc(-c3c[nH]c4ccc(Br)cc34)nc3ccccc23)cc1)Nc1ccccc1 [Example 40]
MIC [1, 3]: > 25 µg/mL
MIC [2, 3]: > 25 µg/mL

NCCCCCNC(=O)c1cc(-c2c[nH]c3ccc(Br)cc23)nc2ccccc12 [Example 41]
MIC [1, 3]: < 25 µg/mL
MIC [2, 3]: < 25 µg/mL

NCC1CCC(CNC(=O)c2cc(-c3c[nH]c4ccc(Br)cc34)nc3ccccc23)CC1 (stereo not shown) [Example 42]
MIC [1, 3]: < 25 µg/mL
MIC [2, 3]: > 25 µg/mL

NC1CCN(C(=O)c2cc(-c3c[nH]c4ccc(Br)cc34)nc3ccccc23)C1 (stereo not shown) [Example 43]
MIC [1, 3]: < 25 µg/mL
MIC [2, 3]: < 25 µg/mL

O=C(NCCN1CCCC1)c1cc(-c2c[nH]c3ccc(Br)cc23)nc2ccccc12 [Example 44]
MIC [1, 3]: < 25 µg/mL
MIC [2, 3]: < 25 µg/mL

O=C(c1cc(-c2c[nH]c3ccc(Br)cc23)nc2ccccc12)N1CCN(Cc2ccccc2)CC1 [Example 45]
MIC [1, 3]: > 25 µg/mL
MIC [2, 3]: > 25 µg/mL

NC(=O)C1CCCN(C(=O)c2cc(-c3c[nH]c4ccc(Br)cc34)nc3ccccc23)C1 (stereo not shown) [Example 46]
MIC [1, 3]: < 25 µg/mL
MIC [2, 3]: < 25 µg/mL

O=C(c1cc(-c2c[nH]c3ccc(Br)cc23)nc2ccccc12)N1CCC(N2CCCCC2)CC1 [Example 47]
MIC [1, 3]: < 25 µg/mL
MIC [2, 3]: < 25 µg/mL

O=C(NCCCCC1CCCNC1)c1cc(-c2c[nH]c3ccc(Br)cc23)nc2ccccc12 (stereo not shown) [Example 49]
MIC [1, 3]: < 7 µg/mL
MIC [2, 3]: < 7 µg/mL

CNCc1ccc(CNCc2cc(-c3c[nH]c4ccc(Br)cc34)nc3ccccc23)cc1 [Example 50]
MIC [1, 3]: < 25 µg/mL
MIC [2, 3]: < 7 µg/mL

NCCN(CCNC(=O)c1cccc2nc(-c3c[nH]c4ccc(Br)cc34)ccc12)CCNC(=O)c1cc(-c2c[nH]c3ccc(Br)cc23)nc2ccccc12 [Example 51]
MIC [1, 3]: < 7 µg/mL
MIC [2, 3]: < 7 µg/mL

NCc1ccc(CNC(=O)c2cc(-c3csc4ccccc34)nc3ccccc23)cc1 [Example 52]
MIC [1, 3]: < 25 µg/mL
MIC [2, 3]: < 25 µg/mL

O=C(c1cc(-c2c[nH]c3ccc(Br)cc23)nc2ccc(I)cc12)N1CCNCC1 [Example 54]
MIC [1, 3]: < 7 µg/mL
MIC [2, 3]: < 7 µg/mL

NCc1ccc(CNC(=O)c2cc(-c3c[nH]c4ccc(Br)cc34)nc3ccc(OC(F)(F)F)cc23)cc1 [Example 55]
MIC [1, 3]: < 7 µg/mL
MIC [2, 3]: < 7 µg/mL

Cc1cc(Cl)cc2c(C(=O)NCc3ccc(CN)cc3)cc(-c3c[nH]c4ccc(Br)cc34)nc12 [Example 56]
MIC [1, 3]: < 25 µg/mL
MIC [2, 3]: < 25 µg/mL

N=C(N)NCCCC(NC(=O)c1cc(-c2c[nH]c3ccc(Br)cc23)nc2ccccc12)C(N)=O (stereo not shown) [Example 57]
MIC [1, 3]: < 25 µg/mL
MIC [2, 3]: < 25 µg/mL

NCCCCCCNC(=O)c1cc(-c2c[nH]c3ccc(Br)cc23)nc2ccccc12 [Example 59]
MIC [1, 3]: < 7 µg/mL
MIC [2, 3]: < 7 µg/mL

CNC1CCN(C(=O)c2cc(-c3c[nH]c4ccc(Br)cc34)nc3ccccc23)C1 (stereo not shown) [Example 60]
MIC [1, 3]: < 25 µg/mL
MIC [2, 3]: < 25 µg/mL

O=C(CCC(=O)N1CCN(C(=O)c2cc(-c3c[nH]c4ccc(Br)cc34)nc3ccccc23)CC1)N1CCN(C(=O)c2cc(-c3c[nH]c4ccc(Br)cc34)nc3ccccc23)CC1 [Example 62]
MIC [1, 3]: > 25 µg/mL
MIC [2, 3]: > 25 µg/mL

COc1ccc(NC(=O)N2CCN(C(=O)c3cc(-c4c[nH]c5ccc(Br)cc45)nc4ccccc34)CC2)c(OC)c1 [Example 63]
MIC [1, 3]: > 25 µg/mL
MIC [2, 3]: > 25 µg/mL

O=C(Nc1ccccc1C(F)(F)F)N1CCN(C(=O)c2cc(-c3c[nH]c4ccc(Br)cc34)nc3ccccc23)CC1 [Example 64]
MIC [1, 3]: > 25 µg/mL
MIC [2, 3]: > 25 µg/mL

O=C(Nc1ccc(C(F)(F)F)cc1)N1CCN(C(=O)c2cc(-c3c[nH]c4ccc(Br)cc34)nc3ccccc23)CC1 [Example 65]
MIC [1, 3]: < 7 µg/mL
MIC [2, 3]: < 25 µg/mL

O=C(Nc1ccc(Cl)cc1C(F)(F)F)N1CCN(C(=O)c2cc(-c3c[nH]c4ccc(Br)cc34)nc3ccccc23)CC1 [Example 66]
MIC [1, 3]: > 25 µg/mL
MIC [2, 3]: > 25 µg/mL

O=C(Nc1ccc(Cl)c(C(F)(F)F)c1)N1CCN(C(=O)c2cc(-c3c[nH]c4ccc(Br)cc34)nc3ccccc23)CC1 [Example 67]
MIC [1, 3]: < 7 µg/mL
MIC [2, 3]: < 7 µg/mL

O=C(Nc1ccc(OC(F)(F)F)cc1)N1CCN(C(=O)c2cc(-c3c[nH]c4ccc(Br)cc34)nc3ccccc23)CC1 [Example 68]
MIC [1, 3]: < 7 µg/mL
MIC [2, 3]: < 7 µg/mL

O=C(Nc1ccccc1OC(F)(F)F)N1CCN(C(=O)c2cc(-c3c[nH]c4ccc(Br)cc34)nc3ccccc23)CC1 [Example 69]
MIC [1, 3]: > 25 µg/mL
MIC [2, 3]: > 25 µg/mL

NCCNC(=O)c1cc(-c2c[nH]c3ccc(Br)cc23)nc2cc(Cl)c(C#CCN3CCCCC3)cc12 [Example 488]
MIC ([2]; BHI broth, 37° C., about 16 hours): < 7 µg/mL
